Measured values as given in PubChem BioAssay AID302 (DTP/NCI, 2004).
Where “and” joins values, the source holds several entries; their conditions need not be identical. Equal entries are not always repeated. Toxic doses and inconclusive results are not listed. How the source made its calls: active means survival T/C of 150% or more; inactive means T/C below 125% in these data. Starred links: 1 amine or outer side, 2 acyl side, 3 side chain; linkers in the order of their positions; H or OH if unused. Positions of bridges follow the written chain, without caps; N, C: chain ends. Non-standard residues stand in square brackets, D forms with d. Residues, ends and D or L forms follow the SMILES beside them. Chains are numbered I, II in the order given. Actinocin(9to1) = Cc1c2oc3c(C)ccc(C(=O)[*:1])c3nc-2c(C(=O)[*:2])c(N)c1=O; aThr = C[C@H](O)[C@H](N)C(=O)O; NMeV = CN[C@H](C(=O)O)C(C)C; Sar = CNCC(=O)O

System: BALB/c mice, Madison 109 lung carcinoma i.m., survival
Test: NCI In Vivo Anticancer Drug Screen. Data for tumor model Madison 109 Lung Carcinoma (intramuscular) in BALB/CM mice
Conditions: endpoint: median survival time, higher = longer survival
Description: The antitumor activity of compounds was measured in mice bearing transplantable tumors. Survival or tumor size were measured and the results are expressed as the measurement made in the treated group (T) divided by the measurement made in the vehicle treated control group (C). The tumor model used in this assay is Madison 109 Lung Carcinoma (intramuscular) in BALB/CM mice

[1] = dose: 16.0 mg/kg/injection, schedule: Q01DX009 (ip), vehicle: saline
[2] = dose: 12.5 mg/kg/injection, schedule: Q01DX009 (ip), vehicle: saline with Tween-80
[3] = dose: 25.0 mg/kg/injection, schedule: Q01DX009 (ip), vehicle: saline with Tween-80
[4] = dose: 50.0 mg/kg/injection, schedule: Q01DX009 (ip), vehicle: saline with Tween-80
[5] = dose: 100.0 mg/kg/injection, schedule: Q01DX009 (ip), vehicle: saline with Tween-80
[6] = dose: 200.0 mg/kg/injection, schedule: Q01DX009 (ip), vehicle: saline with Tween-80
[7] = dose: 400.0 mg/kg/injection, schedule: Q01DX009 (ip), vehicle: saline with Tween-80
[8] = dose: 0.12 mg/kg/injection, schedule: Q01DX009 (ip), vehicle: saline
[9] = dose: 0.12 mg/kg/injection, schedule: Q01DX009 (ip), vehicle: water
[10] = dose: 0.25 mg/kg/injection, schedule: Q01DX009 (ip), vehicle: saline
[11] = dose: 0.5 mg/kg/injection, schedule: Q01DX009 (ip), vehicle: saline
[12] = dose: 0.5 mg/kg/injection, schedule: Q01DX009 (ip), vehicle: water
[13] = dose: 3.12 mg/kg/injection, schedule: Q01DX009 (ip), vehicle: saline with Tween-80
[14] = dose: 6.25 mg/kg/injection, schedule: Q01DX009 (ip), vehicle: saline with Tween-80
[15] = dose: 0.25 mg/kg/injection, schedule: Q01DX009 (ip), vehicle: saline with Tween-80
[16] = dose: 0.5 mg/kg/injection, schedule: Q01DX009 (ip), vehicle: saline with Tween-80
[17] = dose: 32.0 mg/kg/injection, schedule: Q01DX009 (ip), vehicle: saline with Tween-80
[18] = dose: 64.0 mg/kg/injection, schedule: Q01DX009 (ip), vehicle: saline with Tween-80
[19] = dose: 4.0 mg/kg/injection, schedule: Q01DX009 (ip), vehicle: saline with Tween-80
[20] = dose: 8.0 mg/kg/injection, schedule: Q01DX009 (ip), vehicle: saline with Tween-80
[21] = dose: 1.0 mg/kg/injection, schedule: Q01DX009 (ip), vehicle: saline with Tween-80
[22] = dose: 2.0 mg/kg/injection, schedule: Q01DX009 (ip), vehicle: saline with Tween-80
[23] = dose: 0.01 mg/kg/injection, schedule: Q01DX009 (ip), vehicle: saline
[24] = dose: 100.0 mg/kg/injection, schedule: Q01DX009 (ip), vehicle: saline

Measured: T/C

NNC(=O)c1ccncc1
inactive: dose: 8.0 mg/kg/injection, schedule: Q01DX009 (ip), vehicle: saline 101 % of control | [1] 111 % of control | dose: 64.0 mg/kg/injection, schedule: Q01DX009 (ip), vehicle: saline 107 % of control | dose: 128.0 mg/kg/injection, schedule: Q01DX009 (ip), vehicle: saline 108 % of control

Nc1ccc(S(=O)(=O)c2ccc(N)cc2)cc1
inactive: [2] 102 % of control | [3] 103 % of control and 115 % of control | [4] 113 % of control and 117 % of control | [5] 112 % of control | [6] 96 % of control and 102 % of control | [7] 108 % of control

COc1cccc2c1C(=O)c1c(O)c3c(c(O)c1C2=O)C[C@@](O)(C(=O)CO)C[C@@H]3OC1CC(N)C(O)C(C)O1 (some centres not stated)
inactive: [8] 110 % of control | [9] 122 % of control | [10] 114 % of control | [11] 112 % of control and 116 % of control | [12] 119 % of control | dose: 1.0 mg/kg/injection, schedule: Q01DX009 (ip), vehicle: saline 94 % of control and 111 % of control | dose: 1.0 mg/kg/injection, schedule: Q01DX009 (ip), vehicle: water 115 % of control | dose: 10.0 micrograms/mouse/injection, schedule: Q01DX005 (ip), vehicle: saline 96 % of control | dose: 20.0 micrograms/kg/injection, schedule: Q01DX005 (ip), vehicle: saline 123 % of control | dose: 20.0 micrograms/mouse/injection, schedule: Q01DX005 (ip), vehicle: saline 102 % of control | dose: 40.0 micrograms/kg/injection, schedule: Q01DX005 (ip), vehicle: saline 115 % of control | dose: 40.0 micrograms/mouse/injection, schedule: Q01DX005 (ip), vehicle: saline 105 % of control

ClC1C(Cl)C(Cl)C(Cl)C(Cl)C1Cl (configuration not stated)
inactive: [3] 116 % of control | [5] 119 % of control | [7] 86 % of control

Cc1cc(N(CC(C)Br)CC(C)Br)ccc1N=Nc1ccccc1C(=O)O (configuration not stated)
inactive: [13] 110 % of control | [14] 105 % of control | [2] 113 % of control

CCOC(=O)NC1=C(N2CC2)C(=O)C(NC(=O)OCC)=C(N2CC2)C1=O
inactive: dose: 0.12 mg/kg/injection, schedule: Q01DX009 (ip), vehicle: saline with Tween-80 99 % of control and 102 % of control and 111 % of control | [15] 105 % of control and 111 % of control | [16] 103 % of control and 105 % of control

Cc1cn(C2CC(O)C(CO)O2)c(=O)[nH]c1=O (configuration not stated)
inactive: [17] 94 % of control and 101 % of control | [18] 103 % of control and 108 % of control | [5] 108 % of control and 112 % of control | dose: 128.0 mg/kg/injection, schedule: Q01DX009 (ip), vehicle: saline with Tween-80 102 % of control and 105 % of control | [6] 100 % of control and 102 % of control | dose: 256.0 mg/kg/injection, schedule: Q01DX009 (ip), vehicle: saline with Tween-80 95 % of control and 97 % of control | [7] 101 % of control and 103 % of control | dose: 512.0 mg/kg/injection, schedule: Q01DX009 (ip), vehicle: saline with Tween-80 102 % of control and 103 % of control | dose: 800.0 mg/kg/injection, schedule: Q01DX009 (ip), vehicle: saline with Tween-80 106 % of control and 107 % of control | dose: 1600.0 mg/kg/injection, schedule: Q01DX009 (ip), vehicle: saline with Tween-80 96 % of control and 99 % of control

CC(C)NCC(O)COc1cccc2ccccc12 (configuration not stated)
inactive: [19] 111 % of control | [17] 124 % of control | [18] 120 % of control

O=C(N[C@H](CO)[C@H](O)c1ccc([N+](=O)[O-])cc1)C(Cl)Cl
inactive: [5] 118 % of control | [6] 107 % of control | [7] 118 % of control

CCN(CC)CCCC(C)Nc1c2ccc(Cl)cc2nc2ccc(OC)cc12 (configuration not stated)
inactive: [20] 106 % of control | dose: 16.0 mg/kg/injection, schedule: Q01DX009 (ip), vehicle: saline with Tween-80 114 % of control | [17] 104 % of control | [18] 107 % of control

CCOC(=O)CC(SP(=S)(OC)OC)C(=O)OCC (configuration not stated)
inactive: [3] 108 % of control | [4] 112 % of control | [5] 121 % of control | [6] 96 % of control

COc1cccc2c1C(=O)c1c(O)c3c(c(O)c1C2=O)C[C@@](O)(/C(C)=N/NC(=O)c1ccccc1)C[C@@H]3OC1CC(N)C(O)C(C)O1 (some centres not stated)
inactive: [15] 104 % of control | [16] 111 % of control | [21] 124 % of control | [22] 86 % of control and 118 % of control

COc1ccc(CC2C(=O)NC(C)C(=O)N(C)C3C(=O)N(C)C(Cc4ccc(O)c(c4)Oc4ccc(cc4)C3O)C(=O)NC(C)C(=O)NC(C)C(=O)N2C)cc1 (configuration not stated)
inactive: [8] 110 % of control | [10] 113 % of control | [11] 113 % of control | dose: 2.0 mg/kg/injection, schedule: Q01DX009 (ip), vehicle: saline 103 % of control

CN(CO)c1nc(N(C)CO)nc(N(C)CO)n1
inactive: dose: 1.56 mg/kg/injection, schedule: Q01DX009 (ip), vehicle: saline with Tween-80 94 % of control and 101 % of control | [13] 100 % of control and 112 % of control | [14] 100 % of control and 120 % of control | [2] 107 % of control and 114 % of control | [3] 104 % of control and 108 % of control | [4] 120 % of control

CCN(CC)CCOc1ccc2c(c1)C(=O)c1cc(OCCN(CC)CC)ccc1-2
inactive: [1] 101 % of control | dose: 32.0 mg/kg/injection, schedule: Q01DX009 (ip), vehicle: saline 108 % of control | dose: 62.0 mg/kg/injection, schedule: Q01DX009 (ip), vehicle: saline 103 % of control

Cc1c2oc3c(C)ccc(C(=O)N[C@@H]4C(=O)N[C@H](C(C)C)C(=O)N5CCC[C@H]5C(=O)N(C)CC(=O)N(C)[C@@H](C(C)C)C(=O)O[C@H]4C)c3nc-2c(C(=O)N[C@@H]2C(=O)N[C@H](C(C)C)C(=O)N3CCC[C@H]3C(=O)N(C)CC(=O)N(C)[C@@H](C(C)C)C(=O)O[C@H]2C)c(N)c1=O (I: [aThr][dV]P[Sar][NMeV] / II: [aThr][dV]P[Sar][NMeV]; ester I:1-I:C, II:1-II:C; linker I:N-II:N via Actinocin(9to1))
inactive: [23] 111 % of control | dose: 0.02 mg/kg/injection, schedule: Q01DX009 (ip), vehicle: saline 116 % of control | dose: 0.05 mg/kg/injection, schedule: Q01DX009 (ip), vehicle: saline 101 % of control

CCOC(OCC)C(=O)OCC(=O)[C@]1(O)Cc2c(O)c3c(c(O)c2[C@@H](OC2CC(N)C(O)C(C)O2)C1)C(=O)c1c(OC)cccc1C3=O (some centres not stated)
inactive: [9] 115 % of control | dose: 0.25 mg/kg/injection, schedule: Q01DX009 (ip), vehicle: water 124 % of control | [12] 118 % of control

N=C(N)c1ccc(/C=C/c2ccc(C(=N)N)cc2)cc1
inactive: [19] 106 % of control | [20] 109 % of control | [17] 119 % of control | [18] 116 % of control

Nc1ncnc2c1ncn2C1OC(COP(=O)(O)O)C(O)C1O (configuration not stated)
inactive: [24] 103 % of control and 107 % of control | dose: 200.0 mg/kg/injection, schedule: Q01DX009 (ip), vehicle: saline 102 % of control and 115 % of control | dose: 400.0 mg/kg/injection, schedule: Q01DX009 (ip), vehicle: saline 112 % of control

COC1C(O)CC(OC2CC(Oc3cc4cc5c(c(O)c4c(O)c3C)C(=O)[C@@H](OC3CC(OC4CC(OC6CC(C)(O)C(OC(C)=O)C(C)O6)C(O)C(C)O4)C(O)C(C)O3)[C@H]([C@H](OC)C(=O)[C@@H](O)[C@@H](C)O)C5)OC(C)C2OC(C)=O)OC1C (some centres not stated)
inactive: [23] 100 % of control | dose: 0.03 mg/kg/injection, schedule: Q01DX009 (ip), vehicle: saline 102 % of control | dose: 0.06 mg/kg/injection, schedule: Q01DX009 (ip), vehicle: saline 105 % of control | [8] 95 % of control

O=C1C=CC(=O)O1 (tested in a mixture with another compound)
inactive: dose: 12.5 mg/kg/injection, schedule: Q01DX009 (ip), vehicle: saline 113 % of control | dose: 25.0 mg/kg/injection, schedule: Q01DX009 (ip), vehicle: saline 110 % of control | dose: 50.0 mg/kg/injection, schedule: Q01DX009 (ip), vehicle: saline 104 % of control | [24] 110 % of control

CC(=O)OCC1OC(OC(C)=O)C(NC(=O)N(CCCl)N=O)C(OC(C)=O)C1OC(C)=O (configuration not stated)
inactive: [16] 100 % of control and 111 % of control | [21] 92 % of control and 102 % of control and 109 % of control | [22] 94 % of control and 112 % of control | [19] 110 % of control and 118 % of control
